From patent publication US4599362A, “2-aryl-ethyl ether derivatives and insecticidal and acaricidal agents containing said derivatives” (priority 1980, dated 1986)
In brackets after ≈: the same amount, converted by molar mass. Where two headings read alike, the source gives them in different places.

Columns and labels:
[1] = tested on: yearling carps; assay: Test 8: Fish Toxicity; assay type: in vivo; conditions: 48 hours, concentration at which 1/2 of the test fishes were killed
Description: (§1) A water tank having a width of 60 cm, a length of 30 cm and a height of 40 cm was filled with water, and 10 yearling carps having a body length of about 5 cm were set free in the tank and adapted to the environment in the tank. A test compound was applied so that the concentration in water was 10, 1, or 0.1 ppm. After 48 hours, the numbers of killed and living carps were counted and the influences on the fishes were examined.

[2] = tested on: two-spotted spider mite; assay: Test 6: Effect on Two-Spotted Spider mite adults; assay type: in vivo; conditions: 500 ppm, adults, 24 hours; for mortality at 500 ppm: Tetranychus urticae, read-out: Mortality (%)
Outline: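 Kidney bean leaf discs (15 mm) on wet cotton, each holding 10 adult mites, sprayed with 3 ml of a 500 ppm dilution of an emulsifiable concentrate. Kept at 25° C; dead adults counted after 24 hours to give mortality, averaged over three discs.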

[3] = tested on: second-instar larvae of tobacco cutworm; assay: whole plant or invertebrate; assay type: in vivo; conditions: foliar
Description: To a mixture of 20 parts of the compound of the present invention and 20 parts of Sorpol SM-200 (registered trademark for the product supplied by Toho Chemical Industrial Co., Ltd.) was added 60 parts of xylol, and the mixture was sufficiently blended. The obtained emulsifiable concentrate was diluted at a predetermined concentration with distilled water, and the obtained dilution was used.
An emulsifiable concentrate of a test compound prepared according to the method described in Formulation Example 1 was diluted to a concentration of 100 or 20 ppm. Among the compounds of the present invention, the following compounds were used as the test compounds: (1), (l ), (3), (4), (6), (8), (9), (10), (11), (14), (15), (16), (17), (18), (19), (20), (21), (24), (27), (28), (29), (30), (33), (34), (35), (36), (38), (39), (40), (41), (42), (43), (47), (48), (50), (51), (52), (53), (54), (55), (56), (59), (60), (62), (63), (64), (65), (66), (67) and (68). Sweetpotato leaves were immersed in the dilution for 10 seconds, air-dried and placed in a plastic cup having a diameter of 10 cm. Then second-instar larvae of tobacco cutworm were set free in the cup. The cup was allowed to stand still in a thermostat chamber maintained at 25° C. After 48 hours, the numbers of killed and living larvae were counted and the mortality was calculated. The obtained result was expressed by an average value obtained from the mortality calculated in three test cups. Compounds of (b), (f) and (h) were tested as comparative compounds in the same manner as the compounds of the present invention.

[4] = tested on: third-instar larvae of diamond back moth; assay: Test 4: Effect on Diamond Back Moth; assay type: in vivo; conditions: Plutella xylostella, 24 hours
Outline: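 Emulsifiable concentrate diluted in water to 100 or 20 ppm and sprayed at 3 ml per cup onto cabbage leaves holding 10 third-instar diamondback moth larvae. Dead and living larvae counted after 24 h; mortality averaged over three cups.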

[5] = tested on: green peach aphids; assay: Test 5: Effect on green peach Aphid; assay type: in vivo; conditions: Myzus persicae, 24 hours, mortality class, read-out: Insecticidal Activity
[6] = tested on: German cockroach; assay: Test 7: Effect on German Cockroach; assay type: in vivo; conditions: Blattella germanica, male adults, 24 hours, agonized and killed; for mortality at 10 mg/m2: 10 mg/m^2; for mortality at 50 mg/m2: 50 mg/m^2
Outline: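 Dish bottoms were treated with 50 or 10 mg/m^2 of test compound and air-dried, then 10 male adult cockroaches were released per dish and held at 25° C. Agonized and killed adults were counted after 24 hours, averaged over two dishes.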

[7] = Test 8: Fish Toxicity; assay type: in vivo; conditions: carp, water, carps, concentration at which 1/2 of the test fishes were killed, read-out: Fish Toxicity, TLm48
Description: as §1

[8] = tested on: Second-instar and fifth-instar larvae of tobacco cutworm; assay: Test 2: Tobacco Cutworm Larva Dipping Test; assay type: in vivo
[9] = Test 9: Toxicity Test (acute oral, mice); conditions: mouse, in vivo, po
Outline: (§2)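 Compound dissolved or suspended in corn oil was given orally to male mice of 19–23 g body weight, at 0.2 ml per 10 g. Deaths and effects were recorded after 7 days.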

[10] = tested on: sensitive green rice leafhopper (collected at Chigasaki); assay: Test 3: Effect on Sensitive Green Rice Leafhopper; assay type: in vivo; conditions: female adults, 24 hours; for mortality at 20 ppm / mortality at 100 ppm: Nephotettix cincticeps
Outline: (§3)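 Rice seedlings (2–3 leaves) sprayed with emulsifiable-concentrate dilutions at 100 or 20 ppm, 3 ml per pot, air-dried, then infested with 10 female adults per pot. Mortality counted after 24 h and averaged over three pots.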

[11] = tested on: resistant green rice leafhopper (collected at Nakagawara); assay: Test 3: Effect on Resistant Green Rice Leafhopper; assay type: in vivo, Nephotettix cincticeps Uhler; conditions: for mortality at 20 ppm / mortality at 100 ppm: Nephotettix cincticeps, 24 h, read-out: Mortality (%) Green Rice Leafhopper Collected at Nakagawara; for Mortality (%) Green Rice Leafhopper Collected at Nakagawara: resistant, female adults, 24 hours
Outline: as §3

[12] = tested on: male mice; assay: Test 9: Toxicity Test (acute oral, mice); conditions: male mice; oral, corn oil; 7 days
Outline: as §2

[13] = 20 ppm, second-instar larvae, 48 hours, read-out: Mortality (%)
[14] = 20 ppm, second-instar larvae, 24 hours, read-out: Mortality (%) Second-Instar Larvae
[15] = 100 ppm, second-instar larvae, 24 hours, read-out: Mortality (%) Second-Instar Larvae
[16] = topical, 24 h, read-out: Mortality (%) Fifth-Instar Larvae

Compound	mortality at 500 ppm [2]	mortality at 20 ppm [4]	mortality at 100 ppm [4]	mortality at 100 ppm [5]	mortality at 10 mg/m2 [6]	mortality at 50 mg/m2 [6]	LC50 at 48 h [7]	mortality at 20 ppm [8, 14]	mortality at 100 ppm [8, 15]	mortality at 20 ppm [8, 16]	mortality at 100 ppm [8, 16]	LD50 at 168 h [9]	also measured
3-phenoxy-α-cyanobenzyl 2,2-dimethyl-3-(2,2-dichlorovinyl)-cyclopropano-1-carboxylate [(i), reference compound]	–	–	–	–	–	–	–	–	–	–	–	–	Fish Toxicity, TLm48 [1]: below 0.005 ppm
CC(C)C(COCc1cccc(Oc2ccccc2)c1)c1ccc(Cl)cc1 (centres unmarked) [(b), reference compound]	20%	10%	30%	–	–	–	–	–	–	–	–	–	mortality at 100 ppm ([3]; 48 h): 50%; mortality at 20 ppm [3, 13]: 0%
COP(=O)(NC(C)=O)SC (centres unmarked) [(h), O,S-dimethyl N-acetylphosphoroamidothiolate]	–	–	–	–	–	–	–	–	–	–	–	–	mortality at 20 ppm ([3]; 48 h): 30%; mortality at 100 ppm ([3]; 48 h): 70%
CNC(=O)ON=C(C)SC [Comparative Compound (f), S-methyl N-(methylcarbamoyloxy)thioacetoamidate]	–	–	–	–	–	–	–	–	–	–	–	–	mortality at 20 ppm [3, 13]: 80%; mortality at 100 ppm ([3]; 100 ppm, second-instar larvae, 48 hours, read-out: Mortality (%)): 100%
CC(C)(COCc1ccc(F)c(Oc2ccc(F)cc2)c1)c1ccc(Cl)cc1 [Compound 1, 3-(4-Fluorophenoxy)-4-fluorobenzyl 2-(4-chlorophenyl)-2-methylpropyl ether]	100%	100%	100%	> 95%	100%	100%	~1 µg/mL (≈ 2.48 µM)	80%	90%	70%	80%	> 500 mg/kg	–
CC(C)(COCc1ccc(Cl)c(Oc2ccccc2)c1)c1ccc(Cl)cc1 [Compound 3, 3-Phenoxy-4-chlorobenzyl 2-(4-chlorophenyl)-2-methylpropyl ether]	90%	100%	100%	> 95%	90%	100%	> 10 µg/mL	–	–	–	–	> 500 mg/kg	mortality at 20 ppm ([10]; 20 ppm): 80%; mortality at 100 ppm ([10]; 100 ppm): 100%; mortality at 20 ppm [11]: 90%; mortality at 100 ppm [11]: 100%
CCC(COCc1ccc(F)c(Oc2ccccc2)c1)c1ccc(Cl)cc1 (centres unmarked) [Compound 6, 3-Phenoxy-4-fluorobenzyl 2-(4-chlorophenyl)-butyl ether]	100%	100%	100%	> 95%	100%	100%	> 1 µg/mL	90%	100%	85%	100%	> 500 mg/kg	mortality at 20 ppm ([10]; 20 ppm): 100%; mortality at 100 ppm ([10]; 100 ppm): 100%; mortality at 20 ppm [11]: 100%; mortality at 100 ppm [11]: 100%
CC(C)(COCc1ccc(F)c(Oc2ccccc2)c1)c1ccc(Cl)cc1 [Compound 10, 3-phenoxy-4-fluorobenzyl 2-(4-chlorophenyl)-2-methylpropyl ether]	100%	100%	100%	> 95%	100%	100%	> 0.1 µg/mL	100%	100%	100%	100%	> 500 mg/kg	mortality at 20 ppm ([10]; 20 ppm): 100%; mortality at 100 ppm ([10]; 100 ppm): 100%; mortality at 20 ppm [11]: 100%; mortality at 100 ppm [11]: 100%
CC(C)(COCc1ccc(F)c(Oc2ccc(Br)cc2)c1)c1ccc(Cl)cc1 [Compound 15, 3-(4-bromophenoxy)-4-fluorobenzyl 2-(4-chlorophenyl)-2-methylpropyl ether]	100%	100%	100%	> 95%	100%	100%	> 10 µg/mL	100%	100%	100%	100%	> 500 mg/kg	–
CC(C)(COCc1ccc(F)c(Oc2ccccc2)c1)c1ccc(Br)cc1 [Compound 18, 3-Phenoxy-4-fluorobenzyl 2-(4-bromophenyl)-2-methylpropyl ether]	100%	100%	100%	> 95%	100%	100%	> 0.1 µg/mL	–	–	–	–	> 500 mg/kg	–
Pyrethrin [Comparative Compound (c), reference compound]	–	–	–	–	–	–	–	–	–	–	–	–	Mortality (%) [2]: 0%; Mortality (%) Green Rice Leafhopper Collected at Chigasaki ([10]; 20 ppm): 0%; Mortality (%) Green Rice Leafhopper Collected at Chigasaki ([10]; 100 ppm): 0%; Mortality (%) Green Rice Leafhopper Collected at Nakagawara ([11]; 20 ppm): 0%; Mortality (%) Green Rice Leafhopper Collected at Nakagawara ([11]; 100 ppm): 0%; Acute Toxicity at Oral Administration, LD-50 [12]: 340 mg/kg
